Data: patent US11453642B2, “Oxygenated amino- or ammonium-containing sulfonic acid, phosphonic acid and carboxylic acid derivatives and their medical use” (GRI BIO, INC., priority 2011, dated 2022)
pIC50: −log10 of the molar value.

Experiments:
[1] = system: local lymph node reaction; assay: Local lymph node weight and cell count after TDI challenge; assay type: in vivo, mice; settings: topical 1a 2% or 6%, diflorasone 0.1% and 0.5%
Method: Directly after sacrifice, the ear draining lymph node (Ln. auricularis) was prepared and excised. Organ weight was determined by means of an analytical balance (Kern, Balingen, Germany). Single cell suspensions were prepared by means of a glass potter (VWR, Darmstadt, Germany) and cells were counted with a hemocytometer (Neubauer, VWR, Germany).
One of the most undesirable side-effects of corticosteroid administration is immunosuppression, which leads to the inability to effectively address parasitic infection, wound healing and tumor growth. In the current study, the local lymph node reaction after TDI challenge (lymph node weight and cell number) was determined to assess the response of immune organs.

RBL-2H3 cells = assay: Inhibition of mast cell degranulation (β-hexosaminidase release); assay type: cell-based; settings: Rattus norvegicus, IgE-sensitized RBL-2H3 cells, 1 h with compound, antigen (DNP-HSA) 15 min
Source text: Mast cells are key effector cells involved in allergic and inflammatory diseases, and the Rat Basophilic Leukemia clone 2H3 (RBL-2H3) cell line is a commonly used model of allergen dependent immune modulator release (degranulation) in mast cells. On their surface, they express the high affinity receptor for IgE (FcεRI). Upon binding of antigen-specific IgE to the receptor, cells become sensitized to the IgE specific antigen (allergen). When IgE-sensitized cells then encounter multivalent antigen, the antigen clusters IgE-FcεRI complexes and initiates a signal transduction cascade that leads to degranulation, that is, the release of inflammatory mediators, such as cytokines, eicosanoids, histamine and enzymes. The assay can be used as a screening method to identify immune-modulating compounds, in particular compounds useful in the medical management of allergic and inflammatory diseases and asthma, β-hexosaminidase was previously shown to be released with the same kinetics as histamine (Schwartz et al., J Immunology; 123:1445-1450 (1979)), thus offering a simple means to monitor degranulation. […]
MUG substrate solution, 100 μl, were added to supernatant and lysate samples and plates were incubated 30 min at 37° C. […] Fluorescence was measured at 365 nm excitation and 440 nm emission wavelengths. […]

Structure (SMILES)	local lymph node reaction (lymph node weight and cell number) [1]	pIC50 (RBL-2H3 cells)
CCCCCCCCCCCCCCCCN(C)CC(O)CS(=O)(=O)O (centres unmarked) [Compound 1a, 2-hydroxy-3-(N-methylhexadecylammonio)propane-sulfonate]	did not have any impact	–
CCCCCCCCCCCCN(C)CC(O)CS(=O)(=O)O (centres unmarked) [Compound 1c, 2-hydroxy-3-(N-methyldodecylammonio)propanesulfonate]	–	5.39
